Details: not given

| Structure (SMILES) | boiling point [°C] | log10 vapour pressure (mmHg) | melting point [°C] | ready biodegradability | log10 Henry constant (atm·m³/mol) | log10 Koa | log10 Koc (L/kg) |
| --- | --- | --- | --- | --- | --- | --- | --- |
| C1CC12CC2 | 39 | 2.66 | -135 | – | – | – | – |
| N=C(N)NOCC[C@H](N)C(=O)O | – | – | 184 | – | – | – | – |
| Oc1c(I)cc(I)cc1I | – | – | 160 | – | – | – | – |
| Sc1ccc2ccccc2c1 | 288 | – | 81 | not readily biodegradable | – | – | – |
| C=C(C)C(C)(C)CC | 108 | 1.48 | -69 | – | – | – | – |
| C=C(C)C(=O)OC1CCCCC1 | – | – | – | readily biodegradable | – | – | – |
| Cc1c[nH]c(C)c1 | 168 | – | – | – | – | – | – |
| O=C1OCCN1/N=C/c1ccc([N+](=O)[O-])o1 | – | – | 255 | – | – | – | – |
| O=C1C=C(c2ccccc2)CC1 | 234 | – | -23 | – | – | – | – |
| CSCCSC | 183 | – | – | – | – | – | – |
| C/C=C(\C)C(=O)OC | 139 | – | – | – | – | – | – |
| CC(=O)C1CCCC1 | 158 | – | – | – | – | – | – |
| CNCCN | 115 | – | – | – | – | – | – |
| O=C(O)CSCc1ccccc1 | – | – | 61 | – | – | – | – |
| CC(=O)Oc1ccc2c3c1O[C@H]1[C@@H](OC(C)=O)C=C[C@H]4[C@@H](C2)N(C)CC[C@@]341 | – | -9.12 | 173 | – | – | – | – |
| ClCc1cc(Cl)cc(Cl)c1 | – | – | 36 | – | – | – | – |
| Oc1ccccc1C(F)(F)F | 148 | – | 45.5 | – | – | – | – |
| Nc1nc(N)c2[nH]cnc2n1 | – | – | 302 | – | – | – | – |
| ClCc1ccc(Cl)cc1Cl | 248 | -1.49 | -2.6 | – | – | – | – |
| CC(C)(C)c1ccc(O)cc1 | – | – | – | not readily biodegradable | – | – | – |
| Cc1cnc(Cl)nc1Cl | 235 | – | 26 | – | – | – | – |
| CCC(=O)c1ccc(Cl)cc1 | – | – | 37.3 | – | – | – | – |
| COc1ccc(C)c(N)c1 | 253 | – | 47 | – | – | – | – |
| CC1CCSCC1 | 159 | – | -28 | – | – | – | – |
| CCSCCSCC | 217 | – | 180 | – | – | – | – |

| Structure (SMILES) | boiling point [°C] | log10 vapour pressure (mmHg) | melting point [°C] | ready biodegradability | log10 Henry constant (atm·m³/mol) | log10 Koa | log10 Koc (L/kg) |
| --- | --- | --- | --- | --- | --- | --- | --- |
| COC(C)=O | 56.8 | 2.33 | -98 | readily biodegradable | -3.94 | 2.31 | – |
| CC(I)I | 180 | – | – | – | – | – | – |
| CCc1cnccc1C | 198 | – | – | – | – | – | – |
| CC(=O)Oc1ccc(C(=O)O)cc1 | – | – | 192 | – | – | – | – |
| C=NCC#N | – | – | 129 | – | – | – | – |
| NC(=O)Nc1ccc(Cl)c(Cl)c1 | – | – | – | – | – | – | 2.53 |
| C=C(C)C=CC(=C)C | 146 | – | -9 | – | – | – | – |
| CCCCOC(=O)c1ccccc1C(=O)OCCCC | 340 | -4.7 | -35 | readily biodegradable | -5.74 | – | 3.14 |
| CCOC(=O)CCCCCCCCCCCCCCCCC(=O)OCC | – | – | 54.5 | – | – | – | – |
| CNc1cccc2ccccc12 | 294 | – | 174 | – | – | – | – |
| C=C(C)c1ccc(C(=C)C)cc1 | – | – | 63.5 | – | – | – | – |
| Cc1ccccc1OP(=O)(Oc1ccccc1C)Oc1ccccc1C | – | – | – | readily biodegradable | – | – | – |
| Cc1ccc2c(-c3ccccc3)nc(=O)n(C(C)C)c2c1 | – | – | 138 | – | – | – | – |
| C=CCc1ccc(OC(C)=O)c(OC)c1 | 281 | -2.5 | 30.5 | – | – | – | – |
| Clc1ccc(C(c2ccc(Cl)cc2)C(Cl)Cl)cc1 | 350 | -5.87 | 110 | – | -5.18 | 10.1 | 4.21 |
| CC(C)(C)c1ccccc1N | 234 | – | – | – | – | – | – |
| FC(Cl)(Cl)I | 90 | – | -107 | – | – | – | – |
| CC(CN1c2ccccc2Sc2ccccc21)[N+](C)(C)CCO.[Cl-] (configuration not stated) | – | – | 233 | – | – | – | – |
| O=C(O)c1ccccc1C(=O)Nc1cccc2ccccc12 | – | – | 185 | – | – | – | – |
| CCOP(=S)(OCC)OP(=S)(OCC)OCC | – | -3.98 | – | – | – | – | – |
| CCC(C)(O)C(C)C (configuration not stated) | 140 | – | – | – | – | – | – |
| CCC(Br)(CC)C(=O)NC(=O)NC(C)=O | – | – | 109 | – | – | – | – |
| CON(C)C(=O)Nc1ccc(Br)c(Cl)c1 | – | -6.4 | 96 | – | – | – | 2.7 |
| O=C(O)c1ccc(F)cc1F | – | – | 189 | – | – | – | – |
| CCOC(=O)CC(=O)c1ccc(OC)cc1 | – | – | – | readily biodegradable | – | – | – |

| Structure (SMILES) | boiling point [°C] | log10 vapour pressure (mmHg) | melting point [°C] | ready biodegradability | log10 Henry constant (atm·m³/mol) | log10 Koa | log10 Koc (L/kg) |
| --- | --- | --- | --- | --- | --- | --- | --- |
| Clc1ccc(Cl)cc1 | 174 | 0.24 | 52.1 | not readily biodegradable | -2.62 | 4.46 | 2.65 |
| CN(O)CCO | – | – | – | readily biodegradable | – | – | – |
| CCCC(C)(CC)CC | 141 | – | – | – | – | – | – |
| Oc1c(Br)c(Br)c(O)c(Br)c1Br | – | – | 244 | – | – | – | – |
| COC(C)CC(OC)OC (configuration not stated) | 157 | – | – | – | – | – | – |
| OC[C@H]1O[C@@](CO)(O[C@H]2O[C@H](CO)[C@@H](O)[C@H](O)[C@H]2O)[C@@H](O[C@H]2O[C@H](CO)[C@@H](O)[C@H](O)[C@H]2O)[C@@H]1O | – | – | 153 | – | – | – | – |
| CNC(=O)N(C)c1nnc(C(F)(F)F)s1 | – | – | 136 | – | – | – | – |
| CNc1cccc(C)c1 | 206 | – | – | not readily biodegradable | – | – | – |
| CC1(C)[C@H](C(=O)O[C@H](C#N)c2cccc(Oc3ccccc3)c2)[C@@H]1C(Br)C(Br)(Br)Br (some centres not stated) | – | -10.4 | 143 | – | – | – | 5 |
| C=CCc1ccc(OC)c(OC)c1 | 263 | -1.92 | – | readily biodegradable | – | – | – |
| CCN(CC)C(=O)C(C)Oc1cccc2ccccc12 (configuration not stated) | – | -6.76 | 75 | – | – | – | 2.76 |
| CCCCS(=O)(=O)O | – | – | -15.2 | – | – | – | – |
| C=COC(=O)C=C | 91 | – | – | – | – | – | – |
| FC(Cl)(Cl)C(Cl)(Cl)Cl | 135 | – | 101 | – | – | – | – |
| O=C(O)c1cc(O)c2ccccc2n1 | – | – | 282 | – | – | – | – |
| CC1(C)[C@@H]2CC[C@]1(C)[C@H](O)C2 | – | -1.3 | – | – | – | – | – |
| COC(=O)CCO | 179 | – | – | – | – | – | – |
| O=[N+]([O-])c1ccc(N=Nc2ccc(O)cc2)cc1 | – | -9.52 | – | – | – | – | – |
| O=C(O)c1ccccc1Br | – | – | 150 | – | – | – | – |
| CCCc1cc(C(N)=S)ccn1 | – | – | 137 | – | – | – | – |
| COC(C)C | 30.7 | 2.78 | – | – | – | – | – |
| Nc1c([N+](=O)[O-])ccc(Oc2ccccc2)c1Cl | – | -6.92 | 81.5 | – | – | – | – |
| CCC(C)O[N+](=O)[O-] (configuration not stated) | 124 | – | – | – | – | – | – |
| CN(C)c1ccc(C2(c3ccc(N(C)C)cc3)OC(=O)c3cc(N(C)C)ccc32)cc1 | – | – | – | not readily biodegradable | – | – | – |
| Cc1ccc(CO)cc1 | 217 | – | 61.5 | – | – | – | – |

| Structure (SMILES) | boiling point [°C] | log10 vapour pressure (mmHg) | melting point [°C] | ready biodegradability | log10 Henry constant (atm·m³/mol) | log10 Koa | log10 Koc (L/kg) |
| --- | --- | --- | --- | --- | --- | --- | --- |
| O=S1CCC1 | – | – | 31.5 | – | – | – | – |
| NC(=O)Nc1cccc(Cl)c1 | – | – | – | – | – | – | 2.01 |
| FC(F)(F)C(F)(F)I | 13 | – | – | – | – | – | – |
| Nc1ccc(O)c([N+](=O)[O-])c1 | – | – | 126 | – | – | – | – |
| N#Cc1ccccc1O | – | – | 98 | – | – | – | – |
| COc1c(C(C)C)oc2cc3oc(=O)ccc3cc12 | – | – | 85 | – | – | – | – |
| CCCCC(C)C(C)=O (configuration not stated) | 164 | – | – | – | – | – | – |
| O=C(O)c1ccc(CBr)cc1 | – | – | 230 | – | – | – | – |
| Cc1ccccc1N(CC1CO1)CC1CO1 (configuration not stated) | – | – | – | not readily biodegradable | – | – | – |
| CCCCCCCCI | 226 | -0.602 | -45.7 | – | – | – | – |
| CC(=O)Nc1cccc(F)c1 | – | – | 83 | – | – | – | 1.57 |
| CC(C)CCC(C)O (configuration not stated) | 151 | 0.307 | – | – | – | – | – |
| N#CI | – | – | 147 | – | – | – | – |
| Clc1cc2c(cc1Cl)Oc1c(cc(Cl)c(Cl)c1Cl)O2 | – | -9.36 | 240 | – | – | 10.6 | – |
| O=C1C[C@@H]2OCC=C3CN4CC[C@]56c7ccccc7N1[C@H]5[C@H]2[C@H]3C[C@H]46 | – | – | 287 | – | – | – | – |
| COc1cc(OC)nc(N=C(O)NS(=O)(=O)Nc2ccccc2C(=O)C2CC2)n1 | – | – | 162 | – | – | – | – |
| C=CCCCCCCCCC(=O)O | 275 | -3.03 | 24.5 | – | – | – | – |
| CCCCCCCOC(=O)CCC | 226 | – | -57.5 | – | – | – | – |
| O=[N+]([O-])c1cccc(CBr)c1 | – | – | 59.3 | – | – | – | – |
| COC(=O)c1sccc1N | – | – | 65 | – | – | – | – |
| C[C@H](CCC(=O)NCC(=O)O)[C@H]1CC[C@H]2[C@@H]3[C@H](O)C[C@@H]4C[C@H](O)CC[C@]4(C)[C@H]3C[C@H](O)[C@]12C | – | – | 166 | – | – | – | – |
| CN(C)C(=O)C(c1ccccc1)c1ccccc1 | – | -7.52 | 135 | – | – | – | 2.32 |
| FC(F)(F)Br | -57.8 | 4.09 | -172 | – | -0.302 | – | – |

Same assay, conditions: fish

| Structure (SMILES) | log10 BCF | log10 biotransformation half-life (days) |
| --- | --- | --- |
| CC(C)(C)c1ccc(O)cc1 | 1.83 | -0.87 |
| CCCCOC(=O)c1ccccc1C(=O)OCCCC | 2.22 | -0.4 |
| Cc1ccccc1OP(=O)(Oc1ccccc1C)Oc1ccccc1C | – | 0.5 |
| Clc1ccc(C(c2ccc(Cl)cc2)C(Cl)Cl)cc1 | – | 2.44 |
| Cc1ccc(-c2ccc(C)c(C)c2)cc1C | – | -0.01 |
| Clc1ccc(Cl)cc1 | 2.62 | 1.1 |
| Clc1ccc(Cl)c2ccccc12 | 3.75 | 2.37 |
| CNc1cccc(C)c1 | 0.86 | -0.79 |
| Clc1ccc(Oc2ccc(Cl)cc2Cl)c(Cl)c1 | – | 2.28 |
| Clc1cc2c(cc1Cl)Oc1c(cc(Cl)c(Cl)c1Cl)O2 | 4.26 | 1.56 |

Reference: the OPERA property sets (Mansouri et al. 2018)
